From ChEMBL document CHEMBL1201862, “PubChem BioAssay data set” (2004)
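These data come from cells grown in 96-well plates and exposed to compound for 48 hours at five concentrations. Here, GI50 denotes the concentration required for 50% inhibition of growth.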 Calls of active or inactive are those of the source. Rule as the data show it: active = GI50 up to about 1.1 µM and inactive = higher.

Tests used:
Assay in all cases: growth of human tumour cells (NCI), 48 h
HL-60 = test system: HL-60
SF-295 = test system: SF-295
IGROV-1 = test system: IGROV-1
UO-31 = test system: UO-31
PC-3 = test system: PC-3
CAKI-1 = test system: CAKI-1
SN12C = test system: SN12C
OVCAR-5 = test system: OVCAR-5
SK-MEL-2 = test system: SK-MEL-2
ACHN = test system: ACHN
SK-MEL-28 = test system: SK-MEL-28
RXF 393 = test system: RXF 393
NCI-H460 = test system: NCI-H460
HCT-116 = test system: HCT-116
OVCAR-8 = test system: OVCAR-8
HT-29 = test system: HT-29
MDA-MB-231 = test system: MDA-MB-231
NCI-H226 = test system: NCI-H226
COLO 205 = test system: COLO 205
HOP-62 = test system: HOP-62
MDA-MB-435 = test system: MDA-MB-435
SNB-19 = test system: SNB-19
HCC 2998 = test system: HCC 2998
MCF7 = test system: MCF7
NCI-H522 = test system: NCI-H522
DU-145 = test system: DU-145
BT-549 = test system: BT-549
OVCAR-3 = test system: OVCAR-3
SK-OV-3 = test system: SK-OV-3
M14 = test system: M14
SW-620 = test system: SW-620
SF-268 = test system: SF-268
U-251 = test system: U-251
TK-10 = test system: TK-10
Hs-578T = test system: Hs-578T
SK-MEL-5 = test system: SK-MEL-5
UACC-62 = test system: UACC-62
T47D = test system: T47D
MOLT-4 = test system: MOLT-4
A549 = test system: A549
MDA-N = test system: MDA-N
OVCAR-4 = test system: OVCAR-4
A498 = test system: A498
Malme-3M = test system: Malme-3M
CCRF-CEM = test system: CCRF-CEM
HCT-15 = test system: HCT-15
KM12 = test system: KM12
NCI/ADR-RES = test system: NCI/ADR-RES
EKVX = test system: EKVX
SF-539 = test system: SF-539
SNB-75 = test system: SNB-75
LOX IMVI = test system: LOX IMVI
RPMI-8226 = test system: RPMI-8226
UACC-257 = test system: UACC-257
K562 = test system: K562
786-0 = test system: 786-0
NCI-H23 = test system: NCI-H23
HOP-92 = test system: HOP-92
SR = test system: SR

Measured: GI50

COc1cc(OCc2nc3ccccc3n3cccc23)cc(OC)c1OC
inactive: HL-60 9.35 µM | SF-295 11.3 µM | IGROV-1 20.3 µM | UO-31 28.1 µM | PC-3 30.3 µM | CAKI-1 29.7 µM | SN12C 47 µM | OVCAR-5 > 52 µM | SK-MEL-2 > 100 µM | ACHN 21.6 µM | SK-MEL-28 22.1 µM | RXF 393 > 100 µM | NCI-H460 20.5 µM | HCT-116 17.5 µM | OVCAR-8 17.1 µM | HT-29 28.1 µM | MDA-MB-231 40.6 µM | NCI-H226 9.73 µM | COLO 205 16.8 µM | HOP-62 37.2 µM | MDA-MB-435 16 µM | SNB-19 > 51.1 µM | HCC 2998 43.8 µM | MCF7 3.61 µM | NCI-H522 13.1 µM | DU-145 55.8 µM | BT-549 19.7 µM | OVCAR-3 15 µM | SK-OV-3 40.6 µM | M14 20.7 µM | SW-620 8.34 µM | SF-268 41.9 µM | U-251 23.3 µM | TK-10 32.7 µM | Hs-578T 52.6 µM | SK-MEL-5 2.42 µM | UACC-62 13.8 µM | T47D 3.78 µM | MOLT-4 2.37 µM | A549 20.3 µM | MDA-N 19.4 µM | OVCAR-4 10.8 µM | A498 > 87.5 µM | Malme-3M 20.6 µM | CCRF-CEM 8.49 µM | KM12 15.9 µM | NCI/ADR-RES 17.9 µM | EKVX 14.8 µM | SF-539 24.8 µM | SNB-75 > 93.5 µM | LOX IMVI 22.2 µM | RPMI-8226 1.34 µM | UACC-257 10.6 µM | K562 3.86 µM | 786-0 24.4 µM | NCI-H23 5.6 µM | HOP-92 10 µM
8.09 µM: HCT-15

CC(C)[C@@H]1CC[C@@H](C)C[C@H]1OC(=O)c1c2n(c3ccccc13)C[C@H]1OC(C)(C)O[C@@H]21
24.7 µM: HCT-15
inactive: HL-60 5.56 µM | SF-295 6.46 µM | IGROV-1 13 µM | UO-31 96.2 µM | PC-3 5.71 µM | CAKI-1 26.9 µM | SN12C 24.9 µM | OVCAR-5 > 100 µM | SK-MEL-2 > 100 µM | ACHN 8.22 µM | SK-MEL-28 46.7 µM | RXF 393 13.7 µM | HCT-116 4.36 µM | OVCAR-8 20.9 µM | HT-29 8.2 µM | MDA-MB-231 23 µM | NCI-H226 22.3 µM | COLO 205 72.4 µM | HOP-62 27.5 µM | MDA-MB-435 30.5 µM | HCC 2998 26.3 µM | MCF7 14.1 µM | DU-145 20 µM | BT-549 61.8 µM | OVCAR-3 18.2 µM | SR 3.23 µM | SK-OV-3 21.3 µM | M14 22.9 µM | SW-620 16.6 µM | SF-268 19.2 µM | U-251 5.14 µM | TK-10 18.5 µM | Hs-578T 16.7 µM | SK-MEL-5 5.5 µM | UACC-62 18 µM | T47D 15.2 µM | MOLT-4 3.87 µM | A549 18.9 µM | MDA-N 19.7 µM | OVCAR-4 20.9 µM | Malme-3M 7.64 µM | CCRF-CEM 4.22 µM | KM12 9.08 µM | NCI/ADR-RES 13.2 µM | EKVX 6.81 µM | LOX IMVI 6.18 µM | RPMI-8226 3.61 µM | UACC-257 6.95 µM | K562 4.53 µM | 786-0 16.5 µM | NCI-H23 5.77 µM
